Values of other authors in patent publication US20250339408A1, “TREATMENT AND PREVENTION OF BASAL CELL CARCINOMA WITH TOPICAL COMPOSITION COMPRISING PATIDEGIB” (Sol-Gel Technologies Ltd., priority 2023, published 2025).

System: patients with Gorlin Syndrome
Conditions: oral drugs; with and without PTCH1 mutation; cited from earlier work

Cc1c(C(=O)Nc2ccc(N3C[C@@H](C)O[C@@H](C)C3)nc2)cccc1-c1ccc(OC(F)(F)F)cc1 [Sonidegib]
Effect in patients with Gorlin Syndrome (in words): known to effect patients with Gorlin Syndrome, both with and without PTCH1 mutation

CS(=O)(=O)c1ccc(C(=O)Nc2ccc(Cl)c(-c3ccccn3)c2)c(Cl)c1 [Vismodegib]
Effect in patients with Gorlin Syndrome (in words): known to effect patients with Gorlin Syndrome, both with and without PTCH1 mutation
